Laboratory results taken from US20120122896A1, “2,1,3-BENZOXADIAZOL DERIVATIVES FOR THE INHIBITION OF INFLUENZA A AND B VIRUS AND RESPIRATORY SYNCYTIAL VIRUS REPLICATION” (PIKE PHARMA GMBH, priority 2009, published 2012).
Like-named read-outs stand apart in the source and are kept apart here.

Legend:
[1] = system: HA-tagged PA from FluB; experiment: competitive ELISA, PB1 peptide / PA of FluB; type: binding, influenza B virus; settings: competitor peptides 0.048 to 3000 nM; […]; standard deviation in parenthesis; * highest concentration used
[2] = system: HA-tagged PA of FluA
[3] = target: interaction between PB1 and PA (Influenza A virus, UniProt P03433); experiment: biochemical; type: binding
[4] = system: influenza virus (A/WSN/33); experiment: plaque reduction assay, influenza virus in MDCK cells; type: cell-based
[5] = system: RSV (Long strain); experiment: RSV induced cell death reduction in HEp-2 cells; type: cell-based, respiratory syncytial virus; settings: serial dilution 100 to 0.14 μM, 72 h

In the case of MDVNPTLLFLKVPAQ [PB11-15 A], the IC50 [1] is reported as > 3000 nM.
MDVNPTLLFLK [Compound 1-11] showed an IC50 ([2]; read-out: IC50 (nM) of FluA-derived PB1 peptides (truncations)) of 900 nM.
With O=[N+]([O-])c1ccc(Sc2ncnc3c2ncn3C2OC(CO)C(O)C2O)c2nonc12 (stereo not drawn) [PKE137, 2-(hydroxymethyl)-5-[6-[(4-nitro-2,1,3-benzoxadiazol-7-yl)sulfanyl]purin-9-yl]oxolane-3,4-diol] the IC50 ([3]; calculated from inhibition at maximum obtainable concentration where solubility too low, read-out: IC50 [μM] (ELISA)) was 200 µM, the “Active in ELISA” value ([3]; prescreening) was “Yes” and the “inhibition of the replication of influenza virus, particularly influenza A (summary in words)” value [4] was “effectively inhibited”. The “RSV activity, Maximum inhibition (in words)” value [5] was “inactive”.
With MDVNPFLLFLKVPAQ [PB11-15 AT5F] the IC50 [1] was 750 nM and the IC50 ([2]; read-out: IC50 (nM) PA (FluA)) was 2.84 nM.
With MDVNPWLLFLKVPAQ [PB11-15 AT6W] the IC50 [1] was 628 nM and the IC50 ([2]; read-out: IC50 (nM) PA (FluA)) was 3.4 nM.
With MDVNPYLLFLKVPAQ [PB11-15 AT5Y] the IC50 [1] was 107 nM and the IC50 ([2]; read-out: IC50 (nM) PA (FluA)) was 21.6 nM.
